# Results as given in PubChem BioAssay (NCI).
#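 Exposure lasted 48 hours, with cells grown in 96-well plates and compounds tested at five concentrations. GI50 = concentration required for 50% inhibition of growth. TGI is the concentration that stops growth completely.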
# Assays:
# Test in all cases: DTP human tumour cell line panel, 48 h
# [1] = test system: 786-0 renal
# [2] = test system: A498 renal
# [3] = test system: A549 NSCLC
# [4] = test system: ACHN renal
# [5] = test system: BT-549 breast
# [6] = test system: CAKI-1 renal
# [7] = test system: CCRF-CEM leukemia
# [8] = test system: COLO 205 colon
# [9] = test system: DU-145 prostate
# [10] = test system: EKVX NSCLC
# [11] = test system: HCC-2998 colon
# [12] = test system: HCT-116 colon
# [13] = test system: HCT-15 colon
# [14] = test system: HL-60(TB) leukemia
# [15] = test system: HOP-62 NSCLC
# [16] = test system: HOP-92 NSCLC
# [17] = test system: HS 578T breast
# [18] = test system: HT29 colon
# [19] = test system: IGROV1 ovarian
# [20] = test system: K-562 leukemia
# [21] = test system: KM12 colon
# [22] = test system: LOX IMVI melanoma
# [23] = test system: M14 melanoma
# [24] = test system: MALME-3M melanoma
# [25] = test system: MDA-MB-231 breast
# [26] = test system: MDA-MB-435
# [27] = test system: MOLT-4 leukemia
# [28] = test system: NCI-H226 lung
smiles,measurement,setting,value
C=CCOC1=CC(=O)c2ccccc2C1=O,GI50,[1],4.88 µM
same,TGI,[1],15.6 µM
same,GI50,[2],1.42 µM
same,TGI,[2],19.8 µM
same,GI50,[3],2.12 µM
same,TGI,[3],4.85 µM
same,GI50,[4],3.23 µM
same,TGI,[4],11.9 µM
same,GI50,[5],11.1 µM
same,TGI,[5],23.2 µM
same,GI50,[6],15.8 µM
same,TGI,[6],68.7 µM
same,GI50,[7],4.37 µM
same,TGI,[7],41.1 µM
same,GI50,[8],1.7 µM
same,TGI,[8],3.29 µM
same,GI50,[9],2.11 µM
same,TGI,[9],3.72 µM
same,GI50,[10],4.75 µM
same,TGI,[10],26.9 µM
same,GI50,[11],8.59 µM
same,TGI,[11],21.9 µM
same,GI50,[12],2.68 µM
same,TGI,[12],6.69 µM
same,GI50,[13],2.1 µM
same,TGI,[13],4.64 µM
same,GI50,[14],2.75 µM
same,TGI,[14],6.61 µM
same,GI50,[15],1.82 µM
same,TGI,[15],3.43 µM
same,GI50,[16],4.42 µM
same,TGI,[16],15.4 µM
same,GI50,[17],4.58 µM
same,TGI,[17],43.2 µM
same,GI50,[18],2.39 µM
same,TGI,[18],5.53 µM
same,GI50,[19],4.34 µM
same,TGI,[19],13.9 µM
same,GI50,[20],3.62 µM
same,TGI,[20],16.5 µM
same,GI50,[21],3.23 µM
same,TGI,[21],9.26 µM
same,GI50,[22],1.71 µM
same,TGI,[22],3.65 µM
same,GI50,[23],2.11 µM
same,TGI,[23],4.35 µM
same,GI50,[24],1.89 µM
same,TGI,[24],3.54 µM
same,GI50,[25],5.27 µM
same,TGI,[25],> 100 µM
same,GI50,[26],1.94 µM
same,TGI,[26],3.64 µM
same,GI50,[27],5.36 µM
same,TGI,[27],40.4 µM
same,GI50,[28],1.88 µM
same,TGI,[28],4.12 µM
